{"source": "patent US20260166045A1", "about": "“COMBINATION THERAPY COMPRISING GSPT1-DIRECTED MOLECULAR GLUE DEGRADERS AND PI3K/AKT/mTOR PATHWAY INHIBITORS” (Monte Rosa Therapeutics, Inc., priority 2022, published 2026)", "key": {"MCF7 xenografts": {"tested_on": "MCF7 xenografts", "experiment": "MCF7 cell-derived xenograft (CDX) in vivo combination study", "set-up": "species or system BALB/c nude mice", "details": "compound 1-1 10 mg/kg; for Δ TV ratio to vehicle group (A/C, B/C, (AB)/C): day 28, Clarke method; for Δ TV (delta tumor volume): p.o. qd for 28 days, average of four tumors", "method": "[…] (0.36 mg) pellets (Innovative Research of America Cat. No.: SE-121, pellet size: 3.0 mm) were implanted 2-3 days before cell inoculation.\n(§1) Compound 1-1 was formulated every day freshly as a solution in 5% DMSO/95% (30% w/v HPβCD in water). This formulation was also used as vehicle control. Everolimus was formulated as a suspension in 1% MC (400 cps), which was prepared every 3 days.\n(§2) Body weights were measured at the same time.\nAn approximation of drug interactions was made using the method described by Clarke (Clarke et al. 1997. Breast Cancer Res Treat. 46(2-3):255-78). This was applied to […] and can estimate interactions from limited data. In short, for compound A, B, or the combination AB (with control group C), antagonism is predicted when (AB)/C>(A/C)×(B/C), an additive effect is predicted when (AB)/C=(A/C)×(B/C), and synergistic interaction is predicted to occur when (AB)/C<(A/C)×(B/C). Calculations in Table 10B indicate that the interaction of everolimus and compound 1-1 in the MCF7 CDX model is synergistic.\n17β-Estradiol (0.36 mg) pellets (Innovative Research of America Cat. No.: SE-121, pellet size: 3.0 mm) were implanted 2-3 days before cell inoculation.\n(§3) Compound 1-1 was formulated every day freshly as a solution in 5% DMSO/95% (30% w/v HPβCD in water). This formulation was also used as vehicle control. Alpelisib was formulated as a solution in 20% captisol+80% water (pH adjusted to 4), which was prepared every week."}, "CAL51 xenografts": {"tested_on": "CAL51 xenografts", "experiment": "CAL51 cell-derived xenograft (CDX) in vivo combination study", "set-up": "species or system SCID Beige mice", "details": "compound 1-1 3 mg/kg; for antitumor effect vs vehicle (tumor volume): day 21, ANOVA with post hoc Tukey's test; for antitumor effect vs vehicle (tumor volume) / Δ TV ratio to vehicle group (A/C, B/C, (AB)/C): p.o. qd; for Δ TV ratio to vehicle group (A/C, B/C, (AB)/C): day 21, Clarke method; for Δ TV (delta tumor volume): p.o. qd for 21 days, average of four tumors", "method": "as §1, §2, §3"}, "[1]": {"tested_on": "PDX models LU5188, LU5247, LU5236, LU1508, LU5215, LU5137", "experiment": "Lung cancer patient-derived xenograft (PDX) in vivo combination study", "set-up": "species or system BALB/c nude or NOD/SCID mice", "details": "six lung cancer PDX models; everolimus 5 mg/kg qd p.o.", "method": "• Models: The study was conducted at Crown Bioscience with the PDX models LU5188 (small cell lung neuroendocrine carcinoma), LU5247 (non-small cell lung adenocarcinoma), LU5236 (small cell lung neuroendocrine carcinoma), LU1508 (small cell lung neuroendocrine carcinoma), LU5215 (small cell lung neuroendocrine carcinoma), and LU5137 (large cell neuroendocrine carcinoma). • Animals: BALB/c nude (LU1508) or NOD/SCID (all other models) female mice, 5-7 weeks old, weighing approximately 22-25 g, were purchased from certified vendors.\nTumor Inoculation: Fresh tumor tissues was harvest from tumor bearing mice, cut into small pieces (approximately 2-3 mm in diameter) and was kept in RPMI1640 cell culture medium at 4° C.). Lidocaine cream was applied to the PDX fragment inoculation site 1 hour before the operation. In addition, hair was removed from NOD/SCID mice before fragment implantation. Each animal was disinfected at the inoculation site with alcohol swap, PDX tumor fragments were inserted subcutaneously at the upper right dorsal flank with a trocar. The trocar was withdrawn any air bubbles under the skin were extruded.\nBoth compounds were administered orally.\nas §2"}, "NCI-H1836 cell line": {"tested_on": "NCI-H1836 cell line", "experiment": "CTG viability, 11x11 concentration matrix, Loewe synergy (SCLC)", "details": "inhibitor combined with compound 1-1, 11x11 matrix, 72 hours", "protocol": "(§4) Cells were cultured in the media recommended by the supplier.\n(§5) On the day before compound addition, cells were seeded in 384-well-plates (white with clear flat bottom) at the densities indicated in Table 6 in 40 μL of growth medium. The next day, compounds were dispensed from 10 mM stocks using a HP D300 dispenser according to the concentration matrices described above. For each cell line, the compound concentration matrices were dispensed twice as side-by-side duplicates on one 384-well-plate. In addition, each plate contained 14 wells with only growth medium and 44 wells with cells treated with DMSO alone to calculate the average background and maximal signals, respectively. The final DMSO concentration was normalized to 0.2% across the plates. Plates were then incubated for 72 hours. CellTiter-Glo® Luminescent Cell Viability Assay (CTG, Promega G7570) reagent was prepared according to the manufacturer's instructions. Plates were equilibrated to room temperature for approximately 30 minutes, 25 μL CTG reagent was added to each well and plates were mixed on an orbital shaker for 10 minutes to allow for cell lysis. After further incubation for 20 minutes at room temperature, the clear bottoms of the plates were pasted with white back seal and luminescence was read on an EnVision plate reader (measurement time 0.1 seconds)."}, "NCI-H1876 cell line": {"tested_on": "NCI-H1876 cell line", "experiment": "CTG viability, 11x11 concentration matrix, Loewe synergy (SCLC)", "details": "inhibitor combined with compound 1-1, 11x11 matrix, 72 hours", "protocol": "as §4, §5"}, "NCI-H209 cell line": {"tested_on": "NCI-H209 cell line", "experiment": "CTG viability, 11x11 concentration matrix, Loewe synergy (SCLC)", "details": "inhibitor combined with compound 1-1, 11x11 matrix, 72 hours", "protocol": "as §4, §5"}, "NCI-H526 cell line": {"tested_on": "NCI-H526 cell line", "experiment": "CTG viability, 11x11 concentration matrix, Loewe synergy (SCLC)", "details": "inhibitor combined with compound 1-1, 11x11 matrix, 72 hours", "protocol": "as §4, §5"}, "NCI-H69 cell line": {"tested_on": "NCI-H69 cell line", "experiment": "CTG viability, 11x11 concentration matrix, Loewe synergy (SCLC)", "details": "inhibitor combined with compound 1-1, 11x11 matrix, 72 hours", "protocol": "as §4, §5"}, "DOHH-2 cell line": {"tested_on": "DOHH-2 cell line", "experiment": "CTG viability, 11x11 concentration matrix, Loewe synergy (lymphoma)", "details": "inhibitor combined with compound 1-1, 11x11 matrix, 72 hours", "protocol": "as §4, §5"}, "DB cell line": {"tested_on": "DB cell line", "experiment": "CTG viability, 11x11 concentration matrix, Loewe synergy (lymphoma)", "details": "inhibitor combined with compound 1-1, 11x11 matrix, 72 hours", "protocol": "as §4, §5"}, "WSU-DLCL2 cell line": {"tested_on": "WSU-DLCL2 cell line", "experiment": "CTG viability, 11x11 concentration matrix, Loewe synergy (lymphoma)", "details": "inhibitor combined with compound 1-1, 11x11 matrix, 72 hours", "protocol": "as §4, §5"}, "RAJI cell line": {"tested_on": "RAJI cell line", "experiment": "CTG viability, 11x11 concentration matrix, Loewe synergy (lymphoma)", "details": "inhibitor combined with compound 1-1, 11x11 matrix, 72 hours", "protocol": "as §4, §5"}, "SU-DHL-6 cell line": {"tested_on": "SU-DHL-6 cell line", "experiment": "CTG viability, 11x11 concentration matrix, Loewe synergy (lymphoma)", "details": "inhibitor combined with compound 1-1, 11x11 matrix, 72 hours", "protocol": "as §4, §5"}, "MM.1S cell line": {"tested_on": "MM.1S cell line", "experiment": "CTG viability, 11x11 concentration matrix, Loewe synergy (multiple myeloma)", "details": "inhibitor combined with compound 1-1, 11x11 matrix, 72 hours", "protocol": "as §4, §5"}, "OPM-2 cell line": {"tested_on": "OPM-2 cell line", "experiment": "CTG viability, 11x11 concentration matrix, Loewe synergy (multiple myeloma)", "details": "inhibitor combined with compound 1-1, 11x11 matrix, 72 hours", "protocol": "as §4, §5"}, "U266B1 cell line": {"tested_on": "U266B1 cell line", "experiment": "CTG viability, 11x11 concentration matrix, Loewe synergy (multiple myeloma)", "details": "inhibitor combined with compound 1-1, 11x11 matrix, 72 hours", "protocol": "as §4, §5"}, "RPMI 8226 cell line": {"tested_on": "RPMI 8226 cell line", "experiment": "CTG viability, 11x11 concentration matrix, Loewe synergy (multiple myeloma)", "details": "inhibitor combined with compound 1-1, 11x11 matrix, 72 hours", "protocol": "as §4, §5"}, "KMS-34 cell line": {"tested_on": "KMS-34 cell line", "experiment": "CTG viability, 11x11 concentration matrix, Loewe synergy (multiple myeloma)", "details": "inhibitor combined with compound 1-1, 11x11 matrix, 72 hours", "protocol": "as §4, §5"}}, "data": [{"smiles": "CO[C@H]1C[C@@H]2CC[C@@H](C)[C@@](O)(O2)C(=O)C(=O)N2CCCC[C@H]2C(=O)O[C@H]([C@H](C)C[C@@H]2CC[C@@H](OCCO)[C@H](OC)C2)CC(=O)[C@H](C)/C=C(\\C)[C@@H](O)[C@@H](OC)C(=O)[C@H](C)C[C@H](C)/C=C/C=C/C=C/1C", "note": "[Everolimus, (1R,9S,12S,15R,16E,18R,19R,21R,23S,24E,26E,28E,30S,32S,35R)-1,18-dihydroxy-12-[(2R)-1-[(1S,3R,4R)-4-(2-hydroxyethoxy)-3-methoxycyclohexyl]propan-2-yl]-19,30-dimethoxy-15,17,21,23,29,35-hexamethyl-11,36-dioxa-4-azatricyclo[30.3.1.0^4,9]hexatriaconta-16,24,26,28-tetraene-2,3,10,14,20-pentone]", "values": [{"measurement": "antitumor effect vs vehicle (tumor volume)", "setting": "MCF7 xenografts; day 28, ANOVA with post hoc Tukey's test, everolimus 2 mg/kg, p.o. qd", "value": "statistically significant antitumor effects"}, {"measurement": "Δ TV ratio to vehicle group (A/C, B/C, (AB)/C)", "setting": "MCF7 xenografts; everolimus 2 mg/kg, p.o. qd", "value": 0.26}, {"measurement": "Δ TV (delta tumor volume)", "setting": "MCF7 xenografts; day 28, everolimus 2 mg/kg, combination 2 + 10 mg/kg", "value": 164, "unit": "mm3"}, {"measurement": "antitumor effect vs vehicle (tumor volume)", "setting": "CAL51 xenografts; everolimus 2 mg/kg", "value": "did not significantly impede tumor growth"}, {"measurement": "Δ TV ratio to vehicle group (A/C, B/C, (AB)/C)", "setting": "CAL51 xenografts; everolimus 2 mg/kg", "value": 0.87}, {"measurement": "Δ TV (delta tumor volume)", "setting": "CAL51 xenografts; day 21, everolimus 2 mg/kg, combination 2 + 3 mg/kg", "value": 491, "unit": "mm3"}, {"measurement": "body weight loss", "setting": "[1]", "value": "Body weight loss was caused by everolimus dosing"}, {"measurement": "Mean Loewe synergy score, NCI-H1836", "setting": "NCI-H1836 cell line", "value": 1.58}, {"measurement": "Mean Loewe synergy score, NCI-H1876", "setting": "NCI-H1876 cell line", "value": "−0.29"}, {"measurement": "Mean Loewe synergy score, NCI-H209", "setting": "NCI-H209 cell line", "value": 6.14}, {"measurement": "Mean Loewe synergy score, NCI-H526", "setting": "NCI-H526 cell line", "value": 6.49}, {"measurement": "Mean Loewe synergy score, NCI-H69", "setting": "NCI-H69 cell line", "value": 9.46}, {"measurement": "Mean Loewe synergy score, DOHH2", "setting": "DOHH-2 cell line", "value": 6.48}, {"measurement": "Mean Loewe synergy score, DB", "setting": "DB cell line", "value": 5.81}, {"measurement": "Mean Loewe synergy score, WSU-DLCL2", "setting": "WSU-DLCL2 cell line", "value": 8.29}, {"measurement": "Mean Loewe synergy score, RAJI", "setting": "RAJI cell line", "value": 14.66}, {"measurement": "Mean Loewe synergy score, SUDHL6", "setting": "SU-DHL-6 cell line", "value": 12.05}, {"measurement": "Mean Loewe synergy score, MM.1S", "setting": "MM.1S cell line", "value": 6.7}, {"measurement": "Mean Loewe synergy score, OPM-2", "setting": "OPM-2 cell line", "value": 5.3}, {"measurement": "Mean Loewe synergy score, U266B1", "setting": "U266B1 cell line", "value": 4.16}, {"measurement": "Mean Loewe synergy score, RPMI 8226", "setting": "RPMI 8226 cell line", "value": 20.75}, {"measurement": "Mean Loewe synergy score, KMS-34", "setting": "KMS-34 cell line", "value": 16.19}]}, {"smiles": "Cc1nc(NC(=O)N2CCC[C@H]2C(N)=O)sc1-c1ccnc(C(C)(C)C(F)(F)F)c1", "note": "[Alpelisib, (2S)-1-N-[4-methyl-5-[2-(1,1,1-trifluoro-2-methylpropan-2-yl)pyridin-4-yl]-1,3-thiazol-2-yl]pyrrolidine-1,2-dicarboxamide]", "values": [{"measurement": "anti-tumor effect compared to vehicle", "setting": "MCF7 xenografts; day 28, ANOVA with post hoc Tukey's test, alpelisib 50 mg/kg, p.o. qd", "value": "significant anti-tumor effect"}, {"measurement": "Δ TV ratio to vehicle group (A/C, B/C, (AB)/C)", "setting": "MCF7 xenografts; alpelisib 50 mg/kg, p.o. qd", "value": 0.15}, {"measurement": "Δ TV (delta tumor volume)", "setting": "MCF7 xenografts; day 28, alpelisib 50 mg/kg, combination 50 + 10 mg/kg", "value": 91, "unit": "mm^3"}, {"measurement": "antitumor effect vs vehicle (tumor volume)", "setting": "CAL51 xenografts; alpelisib 20 mg/kg", "value": "neither alpelisib nor compound 1-1 produced a statistically significant antitumor effect"}, {"measurement": "Δ TV ratio to vehicle group (A/C, B/C, (AB)/C)", "setting": "CAL51 xenografts; alpelisib 20 mg/kg", "value": 0.76}, {"measurement": "Δ TV (delta tumor volume)", "setting": "CAL51 xenografts; day 21, alpelisib 20 mg/kg, combination 20 + 3 mg/kg", "value": 425, "unit": "mm3"}, {"measurement": "Mean Loewe synergy score, NCI-H1836", "setting": "NCI-H1836 cell line", "value": 1.69}, {"measurement": "Mean Loewe synergy score, NCI-H1876", "setting": "NCI-H1876 cell line", "value": 1.64}, {"measurement": "Mean Loewe synergy score, NCI-H209", "setting": "NCI-H209 cell line", "value": 1.49}, {"measurement": "Mean Loewe synergy score, NCI-H526", "setting": "NCI-H526 cell line", "value": 3.7}, {"measurement": "Mean Loewe synergy score, NCI-H69", "setting": "NCI-H69 cell line", "value": 5.05}, {"measurement": "Mean Loewe synergy score, DOHH2", "setting": "DOHH-2 cell line", "value": 1.59}, {"measurement": "Mean Loewe synergy score, DB", "setting": "DB cell line", "value": "−2.27"}, {"measurement": "Mean Loewe synergy score, WSU-DLCL2", "setting": "WSU-DLCL2 cell line", "value": "−2.69"}, {"measurement": "Mean Loewe synergy score, RAJI", "setting": "RAJI cell line", "value": 2.05}, {"measurement": "Mean Loewe synergy score, SUDHL6", "setting": "SU-DHL-6 cell line", "value": "−6.28"}, {"measurement": "Mean Loewe synergy score, MM.1S", "setting": "MM.1S cell line", "value": 3.44}, {"measurement": "Mean Loewe synergy score, OPM-2", "setting": "OPM-2 cell line", "value": "−2.51"}, {"measurement": "Mean Loewe synergy score, U266B1", "setting": "U266B1 cell line", "value": 0.13}, {"measurement": "Mean Loewe synergy score, RPMI 8226", "setting": "RPMI 8226 cell line", "value": 0.9}, {"measurement": "Mean Loewe synergy score, KMS-34", "setting": "KMS-34 cell line", "value": 7.85}]}]}
